This experiment has as its target melittin (Apis mellifera, UniProt P01501). The experiment can be described thus: biochemical. The format is binding, bee.

Each structure is given as a SMILES string.

In general, Kd refers to the equilibrium constant for the complex coming apart. A lower Kd goes with a tighter complex.

melittin, sequence (P01501 44-69 limits assumed): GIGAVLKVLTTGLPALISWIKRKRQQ

In the case of `CCCCOc1c2cc(C(=O)Nc3cc4cc(c3)C(=O)NCC(=O)N[C@@H](CC(=O)O)C(=O)NCC(=O)N[C@@H](CC(=O)O)C(=O)NC4)cc1Cc1cc(C(=O)Nc3cc4cc(c3)C(=O)NCC(=O)N[C@@H](CC(=O)O)C(=O)NCC(=O)N[C@@H](CC(=O)O)C(=O)NC4)cc(c1OCCCC)Cc1cc(C(=O)Nc3cc4cc(c3)C(=O)NCC(=O)N[C@@H](CC(=O)O)C(=O)NCC(=O)N[C@@H](CC(=O)O)C(=O)NC4)cc(c1OCCCC)Cc1cc(C(=O)Nc3cc4cc(c3)C(=O)NCC(=O)N[C@@H](CC(=O)O)C(=O)NCC(=O)N[C@@H](CC(=O)O)C(=O)NC4)cc(c1OCCCC)C2` [compound 1, Calix[4]arenetetracyclicpeptide1], the affinity, expressed as Kd, was 1 µM.

Values taken from patent US5770380A (priority 1996, dated 1998).
